The text below walks through data of PMC9213561, “3-nitroimidazo[1,2-b]pyridazine as a novel scaffold for antiparasitics with sub-nanomolar anti-Giardia lamblia activity” (International Journal for Parasitology: Drugs and Drug …, 2022).

In general, IC50 refers to the concentration needed to halve the response being measured. For orientation: Ki means a dissociation constant, usually derived from enzyme kinetics or from competition with a known ligand. High values mean weaker binding, low ones tighter binding.

One assay concerns Leishmania infantum. The assay can be described thus: Growth inhibition of L. infantum. It counts as cell-based. The following applies: mean ± standard deviation, n ≥ 2. The protocol: (§1) G. lamblia trophozoites (WBC6) were seeded into 96-well-plates in 0.2 mL Keister-medium containing 10^3 trophozoites per well in the presence of the compounds dissolved in dimethyl sulfoxide (DMSO, final concentration 0.25%) or with DMSO as a solvent control and incubated for 72 h at 37 °C in an anaerobic chamber (80% N2, 10% H2, 10% CO2). Then, plates were centrifuged (2 min, 1000 rpm), medium was removed, and cells were washed once with PBS containing 1 g/L glucose. Then, PBS-glucose containing 10 mg/L resazurin was added, and plates were incubated for up to 5 h at 37 °C. Fluorescence reading (ex 530 nm/em 590 nm) was performed at various time points, and the linear increase of fluorescence was used as a marker for cell viability. IC50 values were calculated using the logit-log algorithm and are given as mean values with 95%-confidence intervals ([Müller et al., 2020]; [Müller and Hemphill, 2013]; [Müller and Müller, 2019]). The assays for growth inhibition of T. b. brucei, T. cruzi, L. infantum, P. falciparum and MRC-5 (human lung fibroblasts MRC-5SV40) were previously described ([Blaazer et al., 2014]). PDE activity was determined exactly as described ([de Heuvel et al., 2021]; [Kunz et al., 2005], [2017b]). All assays were carried out in triplicates and no more than 20% substrate was hydrolyzed in all reactions. Compounds were dissolved in DMSO and the final DMSO concentration was 1% in all reaction mixes. Control reactions with DMSO alone were always included. Data were analyzed using the GraphPad Prism software package (v7.0, GraphPad, San Diego).

In another assay the test system is Plasmodium falciparum. Nature of the assay: Growth inhibition of P. falciparum. Type of assay: cell-based. The following applies: mean ± standard deviation, n ≥ 2, read-out: IC50 (µM) P.f. The protocol: as §1, with “[…]-medium” for “Keister-medium”, “([[…],” for “([Müller et al., 2020]; [Müller and Hemphill, 2013]; [Müller and Müller,”
For assay [1], the system named is MRC-5 (human lung fibroblasts MRC-5SV40). Nature of the assay: Cytotoxicity on MRC-5 cells. Type of assay: cell-based. How it is done:
as §1, with “[…]-medium” for “Keister-medium”, “([[…],” for “([Müller et al., 2020]; [Müller and Hemphill, 2013]; [Müller and Müller,”

Assay [2] has as its system G. lamblia trophozoites (WBC6). The assay can be described thus: Growth inhibition of G. lamblia trophozoites (WBC6), resazurin viability read-out. The following applies: for IC50: Giardia duodenalis, WBC6 trophozoites, 72 h, anaerobic, mean ± standard error (95% CI, logit-log), quadruplicates, read-out: IC50 (nM) G.l. Type of assay: cell-based, Giardia lamblia. How it is done:
as §1
Figure S67. Representative drug susceptibility curves of G. lamblia WBC6. Trophozoites were grown anaerobically in the presence of various concentrations of 17 (red), 29 (blue) and the reference compound metronidazole (MET, black). After 72 h, growth of cells was monitored by a cell viability assay based on the reduction of resazurin to a pink fluorescent product. Measured fluorescence units were normalized to the DMSO control. Data points and error bars represent mean and standard error of 4 replicates.
On the technique in general: Alamar Blue is a resazurin reagent that responds to reducing activity.

Another assay deals with Trypanosoma cruzi. Nature of the assay: Growth inhibition of T. cruzi. Type of assay: cell-based. The following applies: mean ± standard deviation, n ≥ 2. The protocol: as §1
For assay [3], the system named is Trypanosoma brucei brucei. Nature of the assay: Growth inhibition of T. b. brucei. Type of assay: cell-based. Conditions: mean ± standard deviation, n ≥ 2. The protocol:
as §1

Another assay has as its target hPDE4B (Homo sapiens, UniProt Q07343). The assay can be described thus: Human PDE4 activity inhibition. It counts as biochemical. Conditions: mean ± standard deviation, n ≥ 2. The protocol:
as §1

Another assay has as its target GlPDE (aa588-1371) (Giardia lamblia, UniProt A0A644EZ75). The assay can be described thus: GlPDE activity inhibition. It counts as biochemical. The protocol:
as §1
Figure S69. Representative dose-response curve of 11 against GlPDE (aa588-1371) enzyme (substrate concentration: 1 μM).

Where [4] appears, read: MRC5, mean ± standard deviation, n ≥ 2, read-out: IC50 (nM) MRC-5.

Molecules are shown by their SMILES. Structures can show the parent of a compound that is named as a salt. Where two headings read alike, the source gives them in different places. Where only a bound is given, the exact number is not on record here.

Chain of hPDE4B (Q07343 330-659 limits assumed): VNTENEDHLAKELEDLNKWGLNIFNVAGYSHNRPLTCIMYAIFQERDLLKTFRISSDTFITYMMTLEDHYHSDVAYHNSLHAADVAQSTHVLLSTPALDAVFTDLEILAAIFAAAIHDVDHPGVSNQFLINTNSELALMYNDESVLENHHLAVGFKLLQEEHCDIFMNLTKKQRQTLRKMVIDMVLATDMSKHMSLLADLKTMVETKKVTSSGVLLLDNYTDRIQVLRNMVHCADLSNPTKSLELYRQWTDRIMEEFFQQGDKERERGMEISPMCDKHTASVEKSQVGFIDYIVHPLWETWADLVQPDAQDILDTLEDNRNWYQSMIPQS

For `CN(C)c1ccc2ncc([N+](=O)[O-])n2n1` [Compound 21, N,N-Dimethyl-3-nitroimidazo[1,2-b]pyridazin-6-amine], the IC50 was more than 64 µM in the assay with Leishmania infantum; more than 64 µM with Plasmodium falciparum; more than 64000 nM in assay [1] (setting [4]); 22 ± 3 nM in assay [2]; more than 64 µM in the assay on Trypanosoma cruzi; more than 64 µM in assay [3].
With `COc1ccc(C2=NN(C3CCN(c4ccc5ncc([N+](=O)[O-])n5n4)CC3)C(=O)[C@H]3CC=CC[C@@H]23)cc1OC1CCCC1` (relative stereo) [Compound 12, cis-4-(3-(Cyclopentyloxy)-4-methoxyphenyl)-2-(1-(3-nitroimidazo[1,2-b]pyridazin-6-yl)piperidin-4-yl)-4a,5,8,8a-tetrahydrophthalazin-1(2H)-one], the half-inhibitory concentration (IC50) in the assay on Leishmania infantum is 25.9 ± 24.4 µM; in the assay on Plasmodium falciparum it was 3 ± 1.9 µM; in assay [1] (setting [4]) it was more than 64000 nM; in assay [2], 9.3 ± 0.6 nM; in the assay on Trypanosoma cruzi, 2.2 µM; in assay [3] it was 2.1 µM.
With `COc1ccc(C2=NN(C3CCN(c4ccc5nccn5n4)CC3)C(=O)CC2)cc1OC` [Compound 20, 6-(3,4-Dimethoxyphenyl)-2-(1-(imidazo[1,2-b]pyridazin-6-yl)piperidin-4-yl)-4,5-dihydropyridazin-3(2H)-one], the IC50 in the assay with Leishmania infantum is more than 64 µM; in the assay with Plasmodium falciparum it was more than 64 µM; in assay [1] (setting [4]), more than 64000 nM; in assay [2], 930 ± 100 nM; with Trypanosoma cruzi it was more than 64 µM; in assay [3], more than 64 µM. Also, the Ki on hPDE4B was 0.005 ± 0.001 µM; on GlPDE (aa588-1371) (mean ± standard deviation, n ≥ 2), more than 1000 µM. Besides, the “GlPDE inhibition (in words)” value on GlPDE (aa588-1371) is listed as “no GlPDE inhibition”. Also, the “fold decrease of anti-Giardia activity” value in assay [2] (compared with 18) was 4,500 fold.
`O=C(c1ccccc1)C1CCN(c2ccc3ncc([N+](=O)[O-])n3n2)CC1` [Compound 29, (1-(3-Nitroimidazo[1,2-b]pyridazin-6-yl)piperidin-4-yl)(phenyl)methanone]: the half-inhibitory concentration (IC50) was 11.7 ± 1.4 µM with Leishmania infantum; more than 64 µM with Plasmodium falciparum; more than 64000 nM in assay [1] (setting [4]); 1.1 ± 0.2 nM in assay [2]; 18.9 ± 13.9 µM with Trypanosoma cruzi; 34.4 ± 2.4 µM in assay [3].
In the case of `O=[N+]([O-])c1cnc2ccc(N3CCC(N4CCCC4)CC3)nn12` [Compound 25, 3-Nitro-6-(4-(pyrrolidin-1-yl)piperidin-1-yl)imidazo[1,2-b]pyridazine formate], the concentration for half-maximal inhibition (IC50) in the assay on Leishmania infantum is more than 64 µM; in the assay on Plasmodium falciparum it was more than 64 µM; in assay [1] (setting [4]) it was more than 64000 nM; in assay [2], 5.8 ± 0.9 nM; in the assay with Trypanosoma cruzi it was 39.9 ± 3.7 µM; in assay [3], more than 64 µM.
As to `COc1cccc(COc2cc(C3=NN(C4CCN(c5ccc6ncc([N+](=O)[O-])n6n5)CC4)C(=O)[C@H]4CC=CC[C@@H]34)ccc2OC)c1` (relative stereo) [Compound 14, cis-4-(4-Methoxy-3-((3-methoxybenzyl)oxy)phenyl)-2-(1-(3-nitroimidazo[1,2-b]pyridazin-6-yl)piperidin-4-yl)-4a,5,8,8a-tetrahydrophthalazin-1(2H)-one], the 50% inhibitory concentration (IC50) in the assay on Leishmania infantum is 32.5 µM; with Plasmodium falciparum, 0.7 ± 0.5 µM; in assay [1] (setting [4]), more than 64000 nM; in assay [2] it was 1 ± 0.5 nM; with Trypanosoma cruzi, 31.8 ± 12.1 µM; in assay [3], more than 64 µM.
Turning to `O=[N+]([O-])c1cnc2ccc(N3CCC(c4ccccc4)CC3)nn12` [Compound 26, 3-Nitro-6-(4-phenylpiperidin-1-yl)imidazo[1,2-b]pyridazine], the half-inhibitory concentration (IC50) in the assay on Leishmania infantum is more than 64 µM; in the assay with Plasmodium falciparum it was more than 64 µM; in assay [1] (setting [4]), more than 64000 nM; in assay [2], 8.2 ± 1 nM; in the assay on Trypanosoma cruzi, more than 64 µM; in assay [3], more than 64 µM.
On to `COc1ccccc1COc1cc(C2=NN(C3CCN(c4ccc5ncc([N+](=O)[O-])n5n4)CC3)C(=O)[C@H]3CC=CC[C@@H]23)ccc1OC` (relative stereo) [Compound 16, cis-4-(4-Methoxy-3-((2-methoxybenzyl)oxy)phenyl)-2-(1-(3-nitroimidazo[1,2-b]pyridazin-6-yl)piperidin-4-yl)-4a,5,8,8a-tetrahydrophthalazin-1(2H)-one], for which the concentration for half-maximal inhibition (IC50) is 30.6 ± 2.3 µM with Leishmania infantum; 1.1 ± 0.5 µM in the assay with Plasmodium falciparum; 48900 ± 21400 nM in assay [1] (MRC5, Table S1, mean ± standard deviation, n ≥ 2, read-out: IC50 (µM) MRC-5); 49000 nM in assay [1] (setting [4]); 2.8 ± 0.8 nM in assay [2]; 11.2 ± 7.9 µM in the assay on Trypanosoma cruzi. Besides, inhibition in assay [3] was half-maximal at 1.4 ± 0.4 µM (IC50).
Turning to `COc1ccc(CN(C)c2ccc3ncc([N+](=O)[O-])n3n2)cc1` [Compound 30, N-(4-Methoxybenzyl)-N-methyl-3-nitroimidazo[1,2-b]pyridazin-6-amine], the IC50 in the assay with Leishmania infantum was 46.9 ± 5.5 µM; in the assay with Plasmodium falciparum, more than 64 µM; in assay [1] (setting [4]), more than 64000 nM; in assay [2], 10.3 ± 1.5 nM; with Trypanosoma cruzi, 29.7 ± 5.7 µM; in assay [3], more than 64 µM.
With `O=[N+]([O-])c1cnc2ccc(N3CCCCC3)nn12` [Compound 23, 3-Nitro-6-(piperidin-1-yl)imidazo[1,2-b]pyridazine], the IC50 with Leishmania infantum was more than 64 µM; in the assay on Plasmodium falciparum, more than 64 µM; in assay [1] (setting [4]), 28100 nM; in assay [2], 3.6 ± 0.8 nM; in the assay on Trypanosoma cruzi, 32.3 ± 1.1 µM; in assay [3] it was more than 64 µM.
With `O=[N+]([O-])c1cnc2ccc(N3CCCC3)nn12` [Compound 22, 3-Nitro-6-(pyrrolidin-1-yl)imidazo[1,2-b]pyridazine], the IC50 in the assay with Leishmania infantum was more than 64 µM; in the assay on Plasmodium falciparum, more than 64 µM; in assay [1] (setting [4]), more than 64000 nM; in assay [2], 2.3 ± 0.4 nM; in the assay with Trypanosoma cruzi, more than 64 µM; in assay [3] it was more than 64 µM.
As for `COc1ccc(C2=NN(C3CCN(c4ccc5ncc([N+](=O)[O-])n5n4)CC3)C(=O)[C@H]3CC=CC[C@@H]23)cc1OCc1cccc([N+](=O)[O-])c1` (relative stereo) [Compound 13, cis-4-(4-Methoxy-3-((3-nitrobenzyl)oxy)phenyl)-2-(1-(3-nitroimidazo[1,2-b]pyridazin-6-yl)piperidin-4-yl)-4a,5,8,8a-tetrahydrophthalazin-1(2H)-one], the IC50 was 32.5 µM in the assay with Leishmania infantum; 1.6 ± 0.7 µM in the assay with Plasmodium falciparum; more than 64000 nM in assay [1] (setting [4]); 1.2 ± 0.4 nM in assay [2]; more than 64 µM with Trypanosoma cruzi; more than 64 µM in assay [3].
